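Tested at 5 concentrations; 48 h exposure; 96-well plates; endpoints linearly interpolated, else capped at highest concentration. The concentration for 50% growth inhibition is given as GI50.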 The source made the active and inactive calls. Cut-off read from the data, not from the text of the source: active = GI50 up to about 1.1 µM and inactive = higher.
Experiments:
Test in all cases: inhibition of tumour cell growth, NCI panel, 48 h
K562 = system: K562
OVCAR-5 = system: OVCAR-5
KM12 = system: KM12
SK-MEL-5 = system: SK-MEL-5
SN12C = system: SN12C
NCI-H23 = system: NCI-H23
Malme-3M = system: Malme-3M
NCI-H460 = system: NCI-H460
Hs-578T = system: Hs-578T
CAKI-1 = system: CAKI-1
MDA-MB-435 = system: MDA-MB-435
HT-29 = system: HT-29
HCC 2998 = system: HCC 2998
OVCAR-3 = system: OVCAR-3
786-0 = system: 786-0
RXF 393 = system: RXF 393
MDA-N = system: MDA-N
UACC-62 = system: UACC-62
EKVX = system: EKVX
NCI-H226 = system: NCI-H226

Question: Which GI50 (K562) does the source give for `COc1cc2c(cc1O)NC(=S)[C@@H]1CCCN1C2=O` here?
Answer: > 100 µM (inactive)

Question: What about the GI50 (OVCAR-5) of the same compound?
Answer: > 100 µM (inactive)

Question: And the GI50 (KM12)?
Answer: > 100 µM (inactive)

Question: And the GI50 (SK-MEL-5)?
Answer: > 100 µM (inactive)

Question: And the GI50 (SN12C)?
Answer: > 100 µM (inactive)

Question: What about the GI50 (NCI-H23) of the same compound?
Answer: > 100 µM (inactive)

Question: What about the GI50 (Malme-3M) of the same compound?
Answer: > 100 µM (inactive)

Question: And the GI50 (NCI-H460)?
Answer: > 100 µM (inactive)

Question: And the GI50 (Hs-578T)?
Answer: > 100 µM (inactive)

Question: And the GI50 (CAKI-1)?
Answer: > 100 µM (inactive)

Question: And the GI50 (MDA-MB-435)?
Answer: > 100 µM (inactive)

Question: What about the GI50 (HT-29) of the same compound?
Answer: > 100 µM (inactive)

Question: And the GI50 (HCC 2998)?
Answer: > 100 µM (inactive)

Question: And the GI50 (OVCAR-3)?
Answer: > 100 µM (inactive)

Question: And the GI50 (786-0)?
Answer: > 100 µM (inactive)

Question: And the GI50 (RXF 393)?
Answer: > 100 µM (inactive)

Question: What about the GI50 (MDA-N) of the same compound?
Answer: > 100 µM (inactive)

Question: And the GI50 (UACC-62)?
Answer: > 100 µM (inactive)

Question: What about the GI50 (EKVX) of the same compound?
Answer: > 100 µM (inactive)

Question: What about the GI50 (NCI-H226) of the same compound?
Answer: > 100 µM (inactive)

Question: What does the source list for `CCOC(=O)/C(C(=O)Nc1cccc(C(F)(F)F)c1)=C(/N)N1CCCC1`?
Answer: GI50 (K562): > 100 µM (inactive); GI50 (OVCAR-5): > 100 µM (inactive); GI50 (KM12): > 100 µM (inactive); GI50 (SN12C): 41.9 µM (inactive); GI50 (NCI-H23): > 100 µM (inactive); GI50 (Malme-3M): > 100 µM (inactive); GI50 (NCI-H460): > 100 µM (inactive); GI50 (Hs-578T): 27.2 µM (inactive); GI50 (CAKI-1): > 100 µM (inactive); GI50 (MDA-MB-435): > 100 µM (inactive); GI50 (HT-29): > 100 µM (inactive); GI50 (HCC 2998): > 100 µM (inactive); GI50 (OVCAR-3): > 100 µM (inactive); GI50 (786-0): 52.6 µM (inactive); GI50 (RXF 393): 20.9 µM (inactive); GI50 (MDA-N): > 100 µM (inactive); GI50 (UACC-62): > 100 µM (inactive); GI50 (EKVX): > 100 µM (inactive); GI50 (NCI-H226): 29.2 µM (inactive)

Question: With `CCCC(=O)OCOC(=O)N(C)/N=N/c1ccc(C(=O)OCC)cc1` as the compound, how does the GI50 (K562) read?
Answer: 47.6 µM (inactive)

Question: And the GI50 (OVCAR-5)?
Answer: 38 µM (inactive)

Question: And the GI50 (KM12)?
Answer: 26.4 µM (inactive)

Question: What about the GI50 (SK-MEL-5) of the same compound?
Answer: 29.6 µM (inactive)

Question: And the GI50 (SN12C)?
Answer: 27.2 µM (inactive)

Question: And the GI50 (NCI-H23)?
Answer: 24.3 µM (inactive)

Question: And the GI50 (Malme-3M)?
Answer: 20.1 µM (inactive)

Question: What about the GI50 (NCI-H460) of the same compound?
Answer: 8.97 µM (inactive)

Question: And the GI50 (Hs-578T)?
Answer: 27.7 µM (inactive)

Question: And the GI50 (CAKI-1)?
Answer: 43.8 µM (inactive)

Question: What about the GI50 (MDA-MB-435) of the same compound?
Answer: 44.1 µM (inactive)

Question: What about the GI50 (HT-29) of the same compound?
Answer: 18.2 µM (inactive)

Question: And the GI50 (HCC 2998)?
Answer: 15.2 µM (inactive)

Question: What about the GI50 (OVCAR-3) of the same compound?
Answer: 33.7 µM (inactive)

Question: What about the GI50 (786-0) of the same compound?
Answer: 17.7 µM (inactive)

Question: What about the GI50 (RXF 393) of the same compound?
Answer: 16.3 µM (inactive)

Question: And the GI50 (MDA-N)?
Answer: 28.6 µM (inactive)

Question: What about the GI50 (UACC-62) of the same compound?
Answer: 15.4 µM (inactive)

Question: And the GI50 (EKVX)?
Answer: 37.9 µM (inactive)

Question: What about the GI50 (NCI-H226) of the same compound?
Answer: 92.7 µM (inactive)

Question: With `Cc1ccc2cccc3c2c1CC1(C3=O)S(=O)(=O)OCCOS1(=O)=O` as the compound, how does the GI50 (K562) read?
Answer: > 100 µM (inactive)

Question: And the GI50 (OVCAR-5)?
Answer: > 100 µM (inactive)

Question: What about the GI50 (KM12) of the same compound?
Answer: > 100 µM (inactive)

Question: And the GI50 (SK-MEL-5)?
Answer: > 100 µM (inactive)

Question: And the GI50 (SN12C)?
Answer: > 100 µM (inactive)

Question: And the GI50 (NCI-H23)?
Answer: > 100 µM (inactive)

Question: And the GI50 (Malme-3M)?
Answer: > 100 µM (inactive)

Question: What about the GI50 (NCI-H460) of the same compound?
Answer: > 100 µM (inactive)

Question: And the GI50 (Hs-578T)?
Answer: > 100 µM (inactive)

Question: What about the GI50 (CAKI-1) of the same compound?
Answer: > 100 µM (inactive)

Question: And the GI50 (MDA-MB-435)?
Answer: > 100 µM (inactive)

Question: What about the GI50 (HT-29) of the same compound?
Answer: > 100 µM (inactive)

Question: What about the GI50 (HCC 2998) of the same compound?
Answer: > 100 µM (inactive)

Question: And the GI50 (OVCAR-3)?
Answer: > 100 µM (inactive)

Question: What about the GI50 (786-0) of the same compound?
Answer: > 100 µM (inactive)

Question: And the GI50 (RXF 393)?
Answer: > 100 µM (inactive)

Question: What about the GI50 (MDA-N) of the same compound?
Answer: > 100 µM (inactive)

Question: And the GI50 (UACC-62)?
Answer: > 100 µM (inactive)

Question: And the GI50 (EKVX)?
Answer: > 100 µM (inactive)

Question: What about the GI50 (NCI-H226) of the same compound?
Answer: > 100 µM (inactive)

Question: What does the source list for `CN(CCNC(=O)c1cc(-c2ccccc2)nc2ccccc12)CCNC(=O)c1cc(-c2ccccc2)nc2ccccc12`?
Answer: GI50 (K562): 3.55 µM (inactive); GI50 (OVCAR-5): 8.55 µM (inactive); GI50 (KM12): 4.46 µM (inactive); GI50 (SK-MEL-5): 2.31 µM (inactive); GI50 (SN12C): > 100 µM (inactive); GI50 (NCI-H23): > 45.4 µM (inactive); GI50 (Malme-3M): 2.12 µM (inactive); GI50 (NCI-H460): 8.87 µM (inactive); GI50 (Hs-578T): 6.18 µM (inactive); GI50 (CAKI-1): > 100 µM (inactive); GI50 (MDA-MB-435): 6.92 µM (inactive); GI50 (HT-29): 2.14 µM (inactive); GI50 (HCC 2998): 2.43 µM (inactive); GI50 (OVCAR-3): 23 µM (inactive); GI50 (786-0): 5.96 µM (inactive); GI50 (RXF 393): 8.67 µM (inactive); GI50 (MDA-N): 11.1 µM (inactive); GI50 (UACC-62): 12.9 µM (inactive); GI50 (EKVX): 15.9 µM (inactive); GI50 (NCI-H226): 14.6 µM (inactive)

Question: With `CC(C)C1=C(Cc2ccccc2)C(=O)O/C1=C\c1ccc(O)c(Cl)c1` as the compound, how does the GI50 (K562) read?
Answer: 16 µM (inactive)

Question: What about the GI50 (OVCAR-5) of the same compound?
Answer: 18.4 µM (inactive)

Question: What about the GI50 (KM12) of the same compound?
Answer: 18.1 µM (inactive)

Question: What about the GI50 (SK-MEL-5) of the same compound?
Answer: 16.7 µM (inactive)

Question: And the GI50 (SN12C)?
Answer: 16.9 µM (inactive)

Question: And the GI50 (NCI-H23)?
Answer: 13.1 µM (inactive)

Question: What about the GI50 (Malme-3M) of the same compound?
Answer: 15.8 µM (inactive)

Question: And the GI50 (NCI-H460)?
Answer: 17.4 µM (inactive)

Question: What about the GI50 (Hs-578T) of the same compound?
Answer: 13.6 µM (inactive)

Question: And the GI50 (CAKI-1)?
Answer: 18.6 µM (inactive)

Question: What about the GI50 (MDA-MB-435) of the same compound?
Answer: 17 µM (inactive)

Question: And the GI50 (HT-29)?
Answer: 18.8 µM (inactive)

Question: And the GI50 (HCC 2998)?
Answer: 14.6 µM (inactive)

Question: What about the GI50 (OVCAR-3) of the same compound?
Answer: 14.8 µM (inactive)

Question: And the GI50 (786-0)?
Answer: 16.5 µM (inactive)

Question: What about the GI50 (RXF 393) of the same compound?
Answer: 17.5 µM (inactive)

Question: What about the GI50 (MDA-N) of the same compound?
Answer: 16.5 µM (inactive)

Question: What about the GI50 (UACC-62) of the same compound?
Answer: 14.8 µM (inactive)

Question: And the GI50 (EKVX)?
Answer: 16.6 µM (inactive)

Question: What about the GI50 (NCI-H226) of the same compound?
Answer: 16.6 µM (inactive)

Question: For `CNC(=O)c1nnn(C2CCCCC2)c1S`, which GI50 (K562) is on record?
Answer: > 100 µM (inactive)

Question: What about the GI50 (OVCAR-5) of the same compound?
Answer: > 100 µM (inactive)

Question: And the GI50 (KM12)?
Answer: > 100 µM (inactive)

Question: What about the GI50 (SK-MEL-5) of the same compound?
Answer: > 100 µM (inactive)

Question: And the GI50 (SN12C)?
Answer: > 100 µM (inactive)

Question: What about the GI50 (NCI-H23) of the same compound?
Answer: > 100 µM (inactive)

Question: And the GI50 (Malme-3M)?
Answer: > 100 µM (inactive)

Question: What about the GI50 (NCI-H460) of the same compound?
Answer: > 100 µM (inactive)

Question: And the GI50 (Hs-578T)?
Answer: > 100 µM (inactive)

Question: And the GI50 (CAKI-1)?
Answer: > 100 µM (inactive)

Question: And the GI50 (MDA-MB-435)?
Answer: > 100 µM (inactive)

Question: What about the GI50 (HT-29) of the same compound?
Answer: > 100 µM (inactive)

Question: And the GI50 (HCC 2998)?
Answer: > 100 µM (inactive)

Question: What about the GI50 (OVCAR-3) of the same compound?
Answer: 0.0885 µM (active)

Question: What about the GI50 (786-0) of the same compound?
Answer: > 100 µM (inactive)

Question: What about the GI50 (RXF 393) of the same compound?
Answer: > 100 µM (inactive)

Question: And the GI50 (MDA-N)?
Answer: > 100 µM (inactive)

Question: And the GI50 (UACC-62)?
Answer: > 100 µM (inactive)

Question: What about the GI50 (EKVX) of the same compound?
Answer: > 100 µM (inactive)

Question: And the GI50 (NCI-H226)?
Answer: > 100 µM (inactive)

Reference: ChEMBL document CHEMBL1201862, “PubChem BioAssay data set” (2004)
